From patent US8784782B2 (Senomyx, Inc., priority 2005, dated 2014)
Like-named read-outs stand apart in the source and are kept apart here.

Experiments:
[1] = target: T1, hT1R1/hT1R3 umami receptor expressed in an HEK293 cell line (Homo sapiens, UniProt Q7RTX0+Q7RTX1); test: Umami taste enhancement activity assay (EC50 ratio vs. MSG, FLIPR); format: cell-based
T1 construct: expressed in transfected cells; host or cells: HEK293 cell line derivative, hT1R1/hT1R3-HEK293-Gα15, clone I-17, mifepristone-induced
T1 sequence (Q7RTX1 21-841): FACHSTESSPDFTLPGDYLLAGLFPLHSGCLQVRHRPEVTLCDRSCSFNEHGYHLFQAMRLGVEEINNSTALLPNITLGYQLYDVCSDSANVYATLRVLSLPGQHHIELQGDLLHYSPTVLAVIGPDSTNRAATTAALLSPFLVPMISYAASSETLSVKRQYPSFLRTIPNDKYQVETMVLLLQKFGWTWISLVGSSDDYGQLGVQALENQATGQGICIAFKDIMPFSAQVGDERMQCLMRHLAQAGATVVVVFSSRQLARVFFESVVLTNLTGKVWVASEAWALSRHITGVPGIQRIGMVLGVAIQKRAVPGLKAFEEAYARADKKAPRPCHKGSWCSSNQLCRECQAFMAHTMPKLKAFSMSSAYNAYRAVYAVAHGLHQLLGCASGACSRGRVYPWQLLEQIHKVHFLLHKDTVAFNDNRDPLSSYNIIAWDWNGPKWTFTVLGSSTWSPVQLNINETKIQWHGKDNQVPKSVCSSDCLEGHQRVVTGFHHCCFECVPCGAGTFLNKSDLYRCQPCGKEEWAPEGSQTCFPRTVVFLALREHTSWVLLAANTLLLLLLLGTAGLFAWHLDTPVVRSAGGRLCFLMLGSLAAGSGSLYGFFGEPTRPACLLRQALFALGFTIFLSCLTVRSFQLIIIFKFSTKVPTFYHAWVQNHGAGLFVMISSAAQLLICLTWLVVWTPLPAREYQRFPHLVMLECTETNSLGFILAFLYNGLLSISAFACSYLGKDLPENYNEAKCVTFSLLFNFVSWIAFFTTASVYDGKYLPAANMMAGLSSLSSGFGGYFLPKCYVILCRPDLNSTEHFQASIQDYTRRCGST
T1 sequence (Q7RTX0 21-852): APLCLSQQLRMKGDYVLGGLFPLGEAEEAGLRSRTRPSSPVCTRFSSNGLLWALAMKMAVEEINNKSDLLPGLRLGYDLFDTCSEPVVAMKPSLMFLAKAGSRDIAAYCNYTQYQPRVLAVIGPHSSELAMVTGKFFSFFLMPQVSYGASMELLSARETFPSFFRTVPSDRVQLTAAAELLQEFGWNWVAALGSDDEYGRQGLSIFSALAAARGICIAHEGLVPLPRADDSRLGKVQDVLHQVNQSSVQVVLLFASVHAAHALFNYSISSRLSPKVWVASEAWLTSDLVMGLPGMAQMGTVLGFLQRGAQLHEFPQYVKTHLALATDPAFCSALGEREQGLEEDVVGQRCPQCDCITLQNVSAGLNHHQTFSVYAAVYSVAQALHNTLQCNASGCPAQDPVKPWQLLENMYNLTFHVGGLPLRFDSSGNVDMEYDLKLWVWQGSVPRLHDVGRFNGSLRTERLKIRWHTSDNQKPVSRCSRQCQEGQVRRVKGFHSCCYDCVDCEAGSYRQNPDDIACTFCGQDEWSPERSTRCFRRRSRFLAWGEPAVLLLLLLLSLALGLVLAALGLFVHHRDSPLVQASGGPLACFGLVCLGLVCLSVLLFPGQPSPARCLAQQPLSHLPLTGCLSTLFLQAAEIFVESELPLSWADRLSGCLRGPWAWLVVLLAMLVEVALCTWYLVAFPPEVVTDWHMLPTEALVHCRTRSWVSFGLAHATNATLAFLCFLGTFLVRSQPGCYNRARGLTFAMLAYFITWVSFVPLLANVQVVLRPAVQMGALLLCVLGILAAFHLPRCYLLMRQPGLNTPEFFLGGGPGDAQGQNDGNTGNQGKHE
Protocol: A series of measurements of the dose response is run in solutions comprising MSG alone, then a second dose response is run with MSG in combination with predetermined amounts of a candidate compound of Formula (I) at the same time.
Typical compound concentrations tested were 30 μM, 10 μM, 3 μM, 1 μM, 0.3 μM, 0.1 μM and 0.03 μM. The relative efficacy of compounds of Formula (I) at enhancing the receptor was determined by calculating the magnitude of a shift in the EC50 for monosodium glutamate. Enhancement was defined as a ratio (EC50R) corresponding to the EC50 of monosodium glutamate, determined in the absence of the test compound, divided by the EC50 of monosodium glutamate, determined in the presence of the test compound.
Stated alternatively, “EC50 ratio” as compared to MSG is calculated based on the following definitions: EC50 Ratio vs. MSG=EC50 (MSG)/EC50 (MSG+[Compound]) • wherein “[compound]” refers to the concentration of the compound of Formula (I) used to elicit (or enhance or potentiate) the MSG dose response.

[2] = target: T1, hT1R1/hT1R3 umami receptor expressed in an HEK293 cell line; test: In vitro hT1R1/hT1R3 umami taste receptor activation assay (FLIPR, dose response); format: cell-based
Protocol: Activity was determined using an automated fluorometric imaging assay on a FLIPR instrument ([…], Molecular Devices, Sunnyvale, Calif.) (designated FLIPR assay). […] After replacement with 25 μl D-PBS, stimulation was performed in the FLIPR instrument and at room temperature by the addition of 25 μl D-PBS supplemented with different stimuli at concentrations corresponding to twice the desired final level. Receptor activity was quantified by determining the maximal fluorescence increases (using a 480 nm excitation and 535 nm emission) after normalization to basal fluorescence intensity measured before stimulation.
Activities were normalized to the response obtained with 60 mM monosodium glutamate, a concentration that elicits maximum receptor response.

[3] = read-out: EC50 for activation of a hT1R1/hT1R3 umami receptor expressed in an HEK293 cell line
[4] = Table A, triazoles, read-out: Umami EC50
[5] = Table B, pyridazines, read-out: Umami EC50

| SMILES | EC50 [2, 3] | EC50 [2, 4] | also measured |
| --- | --- | --- | --- |
| COc1cc(C)ccc1-c1nc(SCc2ccccn2)n[nH]1 [Example 1, 2-((5-(2-methoxy-4-methylphenyl)-1H-1,2,4-triazol-3-ylthio)methyl)pyridine] | 0.08 µM | – | EC50 ratio (enhanced the effectiveness of monosodium glutamate) ([1]; compound present at 0.03 μM): 5.9 |
| COc1cc(C)ccc1-c1nc(SCc2ccc(C)cn2)n[nH]1 [Example 2, 2-((5-(2-methoxy-4-methylphenyl)-1H-1,2,4-triazol-3-ylthio)methyl)-5-methylpyridine] | 0.49 µM | – | – |
| Cc1ccc(-c2nnc(NCc3ccccn3)o2)c(C)c1 [Example 16, 5-(2,4-Dimethylphenyl)-N-(pyridin-2-ylmethyl)-1,3,4-oxadiazol-2-amine] | 10.3 µM | – | – |
| Cc1cc(-c2nc(SCc3ccccn3)n[nH]2)c(C)o1 [Example 7, 2-((5-(2,5-dimethylfuran-3-yl)-1H-1,2,4-triazol-3-ylthio)methyl)pyridine] | 2.07 µM | – | EC50 ratio (enhanced the effectiveness of monosodium glutamate) ([1]; compound present at 0.1 μM): 2.1 |
| Cc1ccc(-c2ccc(SCc3ccccc3)nn2)c(C)c1 [Example 14, 3-(Benzylthio)-6-(2,4-dimethylphenyl)pyridazine] | 2.7 µM | – | – |
| COc1ccc(Cc2nc(SCc3ccccn3)n[nH]2)c(OC)c1 [Example 9, 2-((5-(2,4-dimethoxybenzyl)-1H-1,2,4-triazol-3-ylthio)methyl)pyridine] | 1.2 µM | – | EC50 ratio (enhanced the effectiveness of monosodium glutamate) ([1]; compound present at 0.1 μM): 2.66 |
| c1ccc(CSc2ccc(-c3ccc4c(c3)OCCO4)nn2)nc1 [Example B1, 3-(2,3-dihydrobenzo[b][1,4]dioxin-yl)-6-(pyridin-2-ylmethylthio)pyridazine] | – | – | EC50 [2, 5]: 0.6 µM |
| CCc1ccc(-c2nc(SCc3ccccn3)n[nH]2)c(OC)c1 [Example 18, 2-((5-(4-ethyl-2-methoxyphenyl)-1H-1,2,4-triazol-3-ylthio)methyl)pyridine] | 0.05 µM | – | – |
| CSc1ccc(-c2nnn(Cc3ccccn3)n2)cc1 [Example C1, 2-((5-(4-(methylthio)phenyl)-2H-tetrazol-2-yl)methyl)pyridine] | – | – | EC50 ([2]; Table C, tetrazole, read-out: Umami EC50): 5.91 µM |
| c1cncc(CSc2ccc(-c3ccc4c(c3)OCCO4)nn2)c1 [Example B3, 3-(2,3-dihydrobenzo[b][1,4]dioxin-6-yl)-6-(pyridin-3-ylmethylthio)pyridazine] | – | – | EC50 [2, 5]: 8.4 µM |
| Cc1ccc(-c2cn(Cc3ccccn3)nn2)cc1 [Example 11, 2-((4-p-Tolyl-1H-1,2,3-triazol-1-yl)methyl)pyridine] | 4.66 µM | – | – |
| Cc1ccc(-c2ccc(SCc3ccccn3)nn2)c(C)c1 [Example 13, 3-(2,4-Dimethylphenyl)-6-(pyridin-2-ylmethylthio)pyridazine] | 1.5 µM | – | – |
| Cc1ccc(-c2cn(CCc3ccccn3)nn2)cc1 [Example 12, 2-(2-(4-p-Tolyl-1H-1,2,3-triazol-1-yl)ethyl)pyridine] | 16.4 µM | – | – |
| Cc1ccc(-c2ccc(SCc3cccnc3)nn2)c(C)c1 [Example 17] | 15.2 µM | – | – |
| COc1ccc(-c2ccc(SCc3ccccn3)nn2)cc1OC [Example B2, 3-(3,4-dimethoxyphenyl)-6-(pyridin-2-ylmethylthio)pyridazine] | – | – | EC50 [2, 5]: 1.7 µM |
| Cc1ccc(-c2ccc(OCc3ccccn3)nn2)c(C)c1 [Example 15, 3-(2,4-Dimethylphenyl)-6-(pyridin-2-ylmethoxy)pyridazine] | 6.9 µM | – | – |
| CCc1ccc(-c2nc(SCc3ccccn3)n[nH]2)c(C)c1 [Example 10, 2-((5-(4-Ethyl-2-methylphenyl)-1H-1,2,4-triazol-3-ylthio)methyl)pyridine] | 0.02 µM | – | – |

Now from value to compound, other results behind:

| EC50 [2, 3] | EC50 [2, 4] | SMILES | also measured |
| --- | --- | --- | --- |
| – | 4.08 µM | COc1ccc(-c2n[nH]c(SCc3ccccn3)n2)cc1OC [Example A18, 2-((5-(3,4-dimethoxyphenyl)-2H-1,2,4-triazol-3-ylthio)methyl)pyridine] | Ec50 ratio (vs. MSG) ([1]; Table A, @ 0.3 μM compound): 2.13 |
| – | 2.48 µM | Clc1ccccc1-c1n[nH]c(SCc2ccccn2)n1 [Example A14, 2-((5-(2-chlorophenyl)-2H-1,2,4-triazol-3-ylthio)methyl)pyridine] | – |
| – | 1.89 µM | CCn1c(SCc2cccnc2)nnc1-c1cc2ccccc2cc1O [Example A26, 3-(4-ethyl-5-(pyridin-3-ylmethylthio)-4H-1,2,4-triazol-3-yl)naphthalen-2-ol] | – |
| – | 7.38 µM | COc1ccccc1-c1n[nH]c(SCCc2ccccn2)n1 [Example A22, 2-(2-(5-(2-methoxyphenyl)-2H-1,2,4-triazol-3-ylthio)ethyl)pyridine] | – |
| – | 13 µM | Cn1c(Cc2ccccc2)nnc1SCc1ccc(Cl)c(Cl)c1 [Example A23, 3-benzyl-5-(3,4-dichlorobenzylthio)-4-methyl-4H-1,2,4-triazole] | – |
| – | 9.41 µM | Cc1ccoc1-c1n[nH]c(SCc2ccccn2)n1 [Example A21, 2-((5-(3-methylfuran-2-yl)-2H-1,2,4-triazol-3-ylthio)methyl)pyridine] | – |
| – | 1.35 µM | c1ccc(CSc2nc(-c3cccc4c3OCO4)n[nH]2)nc1 [Example A11, 2-((5-(benzo[d][1,3]dioxol-4-yl)-2H-1,2,4-triazol-3-ylthio)methyl)pyridine] | – |
| – | 13.1 µM | CCn1c(SCc2cccnc2)nnc1-c1cccc(C)c1 [Example A25, 3-((4-ethyl-5-m-tolyl-4H-1,2,4-triazol-3-ylthio)methyl)pyridine] | – |
| – | 7.92 µM | Cn1c(Cc2ccsc2)nnc1SCc1ccc(Cl)cc1 [Example A27, 3-(4-chlorobenzylthio)-4-methyl-5-(thiophen-3-ylmethyl)-4H-1,2,4-triazole] | – |
| – | 6.05 µM | Cn1c(Cc2ccccc2)nnc1SCc1ccc(Cl)cc1Cl [Example A24, 3-benzyl-5-(2,4-dichlorobenzylthio)-4-methyl-4H-1,2,4-triazole] | – |
| – | 0.52 µM | COc1ccc(-c2n[nH]c(SCc3ccccn3)n2)cc1 [Example A6, 2-((5-(4-methoxyphenyl)-2H-1,2,4-triazol-3-ylthio)methyl)pyridine] | – |
| – | 0.94 µM | Cc1cccc(-c2n[nH]c(SCc3ccccn3)n2)c1 [Example A8, 2-((5-m-tolyl-2H-1,2,4-triazol-3-ylthio)methyl)pyridine] | – |
| – | 1.07 µM | COc1ccc(-c2n[nH]c(SCc3ccc(C)cn3)n2)c(OC)c1 [Example A9, 2-((5-(2,4-dimethoxyphenyl)-2H-1,2,4-triazol-3-ylthio)methyl)-5-methylpyridine] | – |
